Data taken from ChEMBL document CHEMBL1155915, “Anticonvulsant activity of some xanthone derivatives” (Bioorg Med Chem, 2008).
Activity calls are given as the source filed them. No cut-off for these calls is given here.

What was measured:
Mus musculus [1] = assay: Anticonvulsant activity against maximal electroshock-induced seizures in mouse at 300 mg/kg, ip after 0.5 hrs; type: functional, organism-based; design: dose 300 mg/kg
Rattus norvegicus [2] = assay: Anticonvulsant activity against maximal electroshock-induced seizures in rat at 30 mg/kg, po after 2 hrs; type: functional, organism-based; design: dose 30 mg/kg
Rattus norvegicus [3] = assay: Anticonvulsant activity against maximal electroshock-induced seizures in rat at 30 mg/kg, po after 0.5 hrs; type: functional, organism-based; design: dose 30 mg/kg
Mus musculus [4] = assay: Anticonvulsant activity against maximal electroshock-induced seizures in mouse at 30 mg/kg, ip after 0.5 hrs; type: functional, organism-based; design: dose 30 mg/kg
Mus musculus [5] = assay: Anticonvulsant activity against maximal electroshock-induced seizures in mouse at 300 mg/kg, ip after 4 hrs; type: functional, organism-based; design: dose 300 mg/kg
Mus musculus [6] = assay: Anticonvulsant activity against scMet-induced seizures in mouse at 30 mg/kg, ip after 4 hrs; type: functional, organism-based; design: dose 30 mg/kg
Mus musculus [7] = assay: Anticonvulsant activity against scMet-induced seizures in mouse at 30 mg/kg, ip after 0.5 hrs; type: functional, organism-based; design: dose 30 mg/kg
Mus musculus [8] = assay: Anticonvulsant activity against maximal electroshock-induced seizures in mouse at 30 mg/kg, ip after 4 hrs; type: functional, organism-based; design: dose 30 mg/kg
Rattus norvegicus [9] = assay: Neurotoxicity in rat at 30 mg/kg, po after 4 hrs by rotarod test; type: toxicity, organism-based; design: dose 30 mg/kg, route oral; details: in vivo
Rattus norvegicus [10] = assay: Neurotoxicity in rat at 30 mg/kg, po after 0.25 hrs by rotarod test; type: toxicity, organism-based; design: dose 30 mg/kg, route oral; details: in vivo
Mus musculus [11] = assay: Anticonvulsant activity against maximal electroshock-induced seizures in mouse at 100 mg/kg, ip after 4 hrs; type: functional, organism-based; design: dose 100 mg/kg
Mus musculus [12] = assay: Anticonvulsant activity against maximal electroshock-induced seizures in mouse at 100 mg/kg, ip after 0.5 hrs; type: functional, organism-based; design: dose 100 mg/kg
Mus musculus [13] = assay: Neurotoxicity in mouse at 30 mg/kg, ip after 4 hrs by rotarod test; type: toxicity, organism-based; design: dose 30 mg/kg, route intraperitoneal; details: in vivo
Mus musculus [14] = assay: Anticonvulsant activity against scMet-induced seizures in mouse at 300 mg/kg, ip after 4 hrs; type: functional, organism-based; design: dose 300 mg/kg
Rattus norvegicus [15] = assay: Anticonvulsant activity against maximal electroshock-induced seizures in rat at 30 mg/kg, po after 1 hr; type: functional, organism-based; design: dose 30 mg/kg
Rattus norvegicus [16] = assay: Neurotoxicity in rat at 30 mg/kg, po after 0.5 hrs by rotarod test; type: toxicity, organism-based; design: dose 30 mg/kg, route oral; details: in vivo
Rattus norvegicus [17] = assay: Neurotoxicity in rat at 30 mg/kg, po after 2 hrs by rotarod test; type: toxicity, organism-based; design: dose 30 mg/kg, route oral; details: in vivo
Mus musculus [18] = assay: Anticonvulsant activity against scMet-induced seizures in mouse at 100 mg/kg, ip after 4 hrs; type: functional, organism-based; design: dose 100 mg/kg
Mus musculus [19] = assay: Anticonvulsant activity against scMet-induced seizures in mouse at 100 mg/kg, ip after 0.5 hrs; type: functional, organism-based; design: dose 100 mg/kg
Mus musculus [20] = assay: Neurotoxicity in mouse at 30 mg/kg, ip after 0.5 hrs by rotarod test; type: toxicity, organism-based; design: dose 30 mg/kg, route intraperitoneal; details: in vivo
Mus musculus [21] = assay: Anticonvulsant activity against scMet-induced seizures in mouse at 300 mg/kg, ip after 0.5 hrs; type: functional, organism-based; design: dose 300 mg/kg
Mus musculus [22] = assay: Neurotoxicity in mouse at 100 mg/kg, ip after 4 hrs by rotarod test; type: toxicity, organism-based; design: dose 100 mg/kg, route intraperitoneal; details: in vivo
Rattus norvegicus [23] = assay: Neurotoxicity in rat at 30 mg/kg, po after 1 hr by rotarod test; type: toxicity, organism-based; design: dose 30 mg/kg, route oral; details: in vivo
Mus musculus [24] = assay: Anticonvulsant activity against scMet-induced seizures in ip dosed mouse; type: functional
[25] = Neurotoxicity in ip dosed mouse by rotarod test; type: toxicity, organism-based; details: in vivo
Mus musculus [26] = assay: Neurotoxicity in mouse at 100 mg/kg, ip after 0.5 hrs by rotarod test; type: toxicity, organism-based; design: dose 100 mg/kg, route intraperitoneal; details: in vivo
Mus musculus [27] = assay: Neurotoxicity in mouse at 300 mg/kg, ip after 4 hrs by rotarod test; type: toxicity, organism-based; design: dose 300 mg/kg, route intraperitoneal; details: in vivo
Rattus norvegicus [28] = assay: Anticonvulsant activity against maximal electroshock-induced seizures in rat at 30 mg/kg, po after 4 hrs; type: functional, organism-based; design: dose 30 mg/kg
Rattus norvegicus [29] = assay: Anticonvulsant activity against maximal electroshock-induced seizures in rat at 30 mg/kg, po after 0.25 hrs; type: functional, organism-based; design: dose 30 mg/kg
Mus musculus [30] = species on record: Mus musculus; assay: Protective index, ratio of TD50 for mouse by rotarod test to ED50 for mouse by MES test; type: functional
[31] = Displacement of [3H]flunitrazepam from benzodiazepine receptor in rat brain cortex by scintillation counting; type: tissue-based
[32] = Displacement of [3H]nitrendipine from voltage-dependent calcium channel in rat brain cortex by scintillation counting; type: tissue-based
Mus musculus [33] = assay: Anticonvulsant activity against maximal electroshock-induced seizures in ip dosed mouse; type: functional

Compound: CC(CCl)NCc1ccc2oc3cc(Cl)ccc3c(=O)c2c1.Cl (racemic)
- Activity (Mus musculus [1]): inactive
- Activity (Rattus norvegicus [2]): inactive
- Activity (Rattus norvegicus [3]): inactive
- Activity (Mus musculus [4]): inactive
- Activity (Mus musculus [5]): inactive
- Activity (Mus musculus [6]): inactive
- Activity (Mus musculus [7]): inactive
- Activity (Mus musculus [8]): inactive
- Neurotoxicity (Rattus norvegicus [9]): Not Active
- Neurotoxicity (Rattus norvegicus [10]): Not Active
- Activity (Mus musculus [11]): inactive
- Activity (Mus musculus [12]): inactive
- Neurotoxicity (Mus musculus [13]): Not Active
- Activity (Mus musculus [14]): inactive
- Activity (Rattus norvegicus [15]): inactive
- Neurotoxicity (Rattus norvegicus [16]): Not Active
- Neurotoxicity (Rattus norvegicus [17]): Not Active
- Activity (Mus musculus [18]): inactive
- Activity (Mus musculus [19]): inactive
- Neurotoxicity (Mus musculus [20]): Not Active
- Activity (Mus musculus [21]): inactive
- Neurotoxicity (Mus musculus [22]): Not Active
- Neurotoxicity (Rattus norvegicus [23]): Not Active

Compound: CCCC(CCC)C(=O)[O-].[Na+] [VALPROATE SODIUM]
- ED50 (Mus musculus [24]): 290 mg/kg
- TD50 [25]: 483 mg/kg

Compound: CC(C)(CCO)NCc1ccc2oc3cc(Cl)ccc3c(=O)c2c1
- Neurotoxicity (Mus musculus [26]): Not Active
- Activity (Mus musculus [1]): Active
- Activity (Rattus norvegicus [2]): inactive
- Activity (Rattus norvegicus [3]): inactive
- Activity (Mus musculus [4]): inactive
- Activity (Mus musculus [5]): inactive
- Activity (Mus musculus [6]): inactive
- Activity (Mus musculus [7]): inactive
- Activity (Mus musculus [8]): inactive
- Neurotoxicity (Rattus norvegicus [9]): Not Active
- Neurotoxicity (Rattus norvegicus [10]): Not Active
- Activity (Mus musculus [11]): inactive
- Neurotoxicity (Mus musculus [13]): Not Active
- Activity (Mus musculus [14]): inactive
- Activity (Rattus norvegicus [15]): inactive
- Neurotoxicity (Mus musculus [27]): Not Active
- Activity (Rattus norvegicus [28]): inactive
- Neurotoxicity (Rattus norvegicus [16]): Not Active
- Neurotoxicity (Rattus norvegicus [17]): Not Active
- Activity (Mus musculus [18]): inactive
- Activity (Rattus norvegicus [29]): inactive
- Activity (Mus musculus [19]): inactive
- Activity (Mus musculus [21]): inactive
- Neurotoxicity (Mus musculus [22]): Not Active
- Neurotoxicity (Rattus norvegicus [23]): Not Active

Compound: C[C@@H](CO)NCc1ccc2oc3cc(Cl)ccc3c(=O)c2c1
- Neurotoxicity (Mus musculus [26]): Not Active
- ED50 (Mus musculus [24]): > 350 mg/kg
- Activity (Mus musculus [1]): Active
- Activity (Rattus norvegicus [2]): inactive
- Activity (Rattus norvegicus [3]): inactive
- Activity (Mus musculus [4]): inactive
- Activity (Mus musculus [5]): Active
- Activity (Mus musculus [6]): inactive
- Activity (Mus musculus [7]): inactive
- Activity (Mus musculus [8]): inactive
- Neurotoxicity (Rattus norvegicus [9]): Not Active
- Neurotoxicity (Rattus norvegicus [10]): Not Active
- Neurotoxicity (Mus musculus [13]): Not Active
- Activity (Mus musculus [14]): inactive
- Activity (Rattus norvegicus [15]): inactive
- PI (Mus musculus [30]): <6.851
- EC50 [31]: 30 µM
- Neurotoxicity (Mus musculus [27]): Not Active
- TD50 [25]: < 500 mg/kg
- Neurotoxicity (Rattus norvegicus [16]): Not Active
- Neurotoxicity (Rattus norvegicus [17]): Not Active
- Activity (Mus musculus [18]): inactive
- EC50 [32]: 7.6 µM
- Neurotoxicity (Mus musculus [20]): Not Active
- ED50 (Mus musculus [33]): 73 mg/kg
- Activity (Mus musculus [21]): inactive
- Neurotoxicity (Mus musculus [22]): Not Active
- Neurotoxicity (Rattus norvegicus [23]): Not Active
